Data as given in the supplement of paper PMC10307832.

Legend:
Assay in all cases: relative viability (nuclei count vs DMSO), 5 days (fraction); higher = more cells survive
Neratinib + Decitabine = compound: CCOc1cc2ncc(C#N)c(Nc3ccc(OCc4ccccn4)c(Cl)c3)c2cc1NC(=O)/C=C/CN(C)C [Neratinib] + Nc1ncn([C@H]2C[C@H](O)[C@@H](CO)O2)c(=O)n1 [Decitabine] (partner 2 µM)
In short: (§1)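 Each reported value is a median over duplicate plates. It expresses relative viability: treated-well nuclei count divided by vehicle-well nuclei count. Lung cancer cell lines in 1536-well plates were dosed by pin tool a day after seeding, alone with one drug or with a fixed anchor-drug dose plus five library-drug doses (not always all listed) in √10 steps, and nuclei were counted after 5 days.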

Neratinib + Crizotinib = compound: CCOc1cc2ncc(C#N)c(Nc3ccc(OCc4ccccn4)c(Cl)c3)c2cc1NC(=O)/C=C/CN(C)C [Neratinib] + C[C@@H](Oc1cc(-c2cnn(C3CCNCC3)c2)cnc1N)c1c(Cl)ccc(F)c1Cl [Crizotinib] (partner 1 µM)
In short: as §1

Neratinib + Tozasertib = compound: CCOc1cc2ncc(C#N)c(Nc3ccc(OCc4ccccn4)c(Cl)c3)c2cc1NC(=O)/C=C/CN(C)C [Neratinib] + Cc1cc(Nc2cc(N3CCN(C)CC3)nc(Sc3ccc(NC(=O)C4CC4)cc3)n2)n[nH]1 [Tozasertib] (partner 0.1 µM)
In short: as §1

Neratinib + Lapatinib = compound: CCOc1cc2ncc(C#N)c(Nc3ccc(OCc4ccccn4)c(Cl)c3)c2cc1NC(=O)/C=C/CN(C)C [Neratinib] + CS(=O)(=O)CCNCc1ccc(-c2ccc3ncnc(Nc4ccc(OCc5cccc(F)c5)c(Cl)c4)c3c2)o1 [Lapatinib] (partner 2 µM)
In short: as §1

Cell Line	relative viability (Neratinib + Decitabine; first compound 0.01 µM)	relative viability (Neratinib + Decitabine; first compound 0.03162 µM)	relative viability (Neratinib + Decitabine; first compound 0.1 µM)	relative viability (Neratinib + Decitabine; first compound 0.3162 µM)	relative viability (Neratinib + Decitabine; first compound 1 µM)	relative viability (Neratinib + Crizotinib; first compound 0.01 µM)	relative viability (Neratinib + Crizotinib; first compound 0.03162 µM)	relative viability (Neratinib + Crizotinib; first compound 0.1 µM)	relative viability (Neratinib + Crizotinib; first compound 0.3162 µM)	relative viability (Neratinib + Crizotinib; first compound 1 µM)	relative viability (Neratinib + Tozasertib; first compound 0.01 µM)	relative viability (Neratinib + Tozasertib; first compound 0.03162 µM)	relative viability (Neratinib + Tozasertib; first compound 0.1 µM)	relative viability (Neratinib + Tozasertib; first compound 0.3162 µM)	relative viability (Neratinib + Tozasertib; first compound 1 µM)	relative viability (Neratinib + Lapatinib; first compound 0.01 µM)	relative viability (Neratinib + Lapatinib; first compound 0.03162 µM)	relative viability (Neratinib + Lapatinib; first compound 0.1 µM)	relative viability (Neratinib + Lapatinib; first compound 0.3162 µM)	relative viability (Neratinib + Lapatinib; first compound 1 µM)
NCI-H1755	0.728	0.715	0.718	0.805	0.858	0.873	0.919	0.752	0.912	0.476	0.619	0.617	0.613	0.515	0.543	1.03	1.07	0.969	1.12	1.09
NCI-H1915	0.262	0.271	0.251	0.241	0.286	0.973	0.931	0.864	0.811	0.725	0.42	0.475	0.402	0.39	0.346	1.05	1.05	0.898	0.832	0.964
NCI-H1944	0.458	0.482	0.423	0.389	0.39	1.31	0.991	0.99	0.762	0.348	0.255	0.248	0.221	0.218	0.16	1.17	0.845	0.732	0.836	0.705
NCI-H1975	0.36	0.444	0.351	0.346	0.19	1.14	1.05	0.752	0.442	0.193	0.869	–	0.698	0.324	0.106	1.09	0.972	0.609	0.403	0.191
NCI-H1993	0.643	0.628	0.272	0.484	0.578	0.859	0.901	0.586	0.771	0.677	0.528	0.594	0.597	0.536	0.593	0.88	0.795	0.79	0.845	0.803
NCI-H2009	0.358	0.396	0.342	0.447	0.387	1.02	1.05	0.524	0.946	0.783	0.732	0.799	0.621	0.613	0.554	0.939	1.15	0.862	0.834	1.52
NCI-H2023	0.245	0.232	0.206	0.217	0.376	0.642	0.523	0.484	0.419	0.287	0.389	0.33	0.292	0.211	0.141	0.888	0.804	0.758	0.878	0.723
NCI-H2085	0.595	0.547	0.542	0.485	0.516	0.992	0.928	0.823	0.664	0.483	0.729	0.909	0.716	0.675	0.458	0.76	0.887	0.767	0.71	0.699
NCI-H2087	0.272	0.333	0.239	0.254	0.215	1.02	1.03	–	0.978	0.667	0.239	0.274	0.197	0.193	0.134	1.02	0.995	–	0.989	0.894
NCI-H2126	0.644	0.632	0.54	0.566	0.556	1.05	1.03	1.03	1.06	0.51	0.851	0.857	0.794	0.673	0.397	0.79	–	0.735	0.754	0.672
NCI-H2170	0.548	0.457	0.412	0.213	0.18	1.14	0.77	0.617	0.302	0.223	0.842	0.684	0.565	0.266	0.183	0.284	0.278	0.289	0.301	0.255
NCI-H2347	0.679	0.606	–	0.545	0.633	0.693	0.743	0.629	0.675	0.464	0.539	0.624	–	0.541	0.384	0.812	1.04	0.94	0.952	0.83
NCI-H2405	0.799	0.74	0.769	0.675	0.669	0.873	0.879	0.834	0.765	0.781	0.808	0.852	0.712	0.72	0.547	1.26	1.04	1.04	1.16	0.804
NCI-H3122	0.365	0.544	0.488	0.457	0.364	0.291	0.284	0.222	0.188	0.198	0.437	0.422	0.388	0.375	0.135	1.05	1.05	0.884	1.03	0.601
PC-3 [JPC-3]	0.814	0.912	0.764	0.547	0.606	1.09	1.09	0.997	0.948	0.345	0.891	0.922	0.822	0.773	0.406	0.457	0.433	0.455	0.485	0.373
PC-14	0.217	0.285	0.241	0.194	0.108	–	0.851	0.796	0.662	0.356	0.574	0.721	0.627	0.454	0.0727	0.365	0.327	0.267	0.285	0.302
